Reference: the supplement of paper PMC11061612

Key:
Assay in all cases: Bliss excess, mean over the matrix (fraction); higher = more synergy
[1] = tested on: CAL-120 (Breast Carcinoma)
Summary of the method: (§1)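 After 24 hours at 37°C and 5% CO2 in 1536-well plates, cells in DMEM/F12 or RPMI plus 10% FBS received two-drug dose matrices for 72 hours. Viability came from CellTiter-Glo 2.0 luminescence and was scaled as inhibition, anchored at 0 by vehicle wells and at 1 by blank wells. Combination Emax is taken as the second-highest inhibition in the matrix, and Bliss excess as the observed combination effect less EA + EB − EA·EB, with EA and EB the single-agent effects.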

SF268 (Low Grade Glioma) = tested on: SF268 (Low Grade Glioma)
Summary of the method: as §1

[2] = tested on: GP5d (Colorectal Carcinoma)
Summary of the method: as §1

[3] = tested on: HSC-39 (Gastric Carcinoma)
Summary of the method: as §1

[4] = tested on: RERF-LC-Sq1 (Squamous Cell Lung Carcinoma)
Summary of the method: as §1

[5] = tested on: L-1236 (Hodgkin's Lymphoma)
Summary of the method: as §1

[6] = tested on: SU-DHL-10 (B-Cell Non-Hodgkin's Lymphoma)
Summary of the method: as §1

[7] = tested on: LXF-289 (Lung Adenocarcinoma)
Summary of the method: as §1

WM793B (Melanoma) = tested on: WM793B (Melanoma)
Summary of the method: as §1

[8] = tested on: LB996-RCC (Kidney Carcinoma)
Summary of the method: as §1

WM278 (Melanoma) = tested on: WM278 (Melanoma)
Summary of the method: as §1

[9] = tested on: 23132-87 (Gastric Carcinoma)
Summary of the method: as §1

[10] = tested on: LK-2 (Squamous Cell Lung Carcinoma)
Summary of the method: as §1

[11] = tested on: KE-37 (T-Lymphoblastic Leukemia)
Summary of the method: as §1

[12] = tested on: TE-8 (Esophageal Squamous Cell Carcinoma)
Summary of the method: as §1

[13] = tested on: PSN1 (Pancreatic Carcinoma)
Summary of the method: as §1

[14] = tested on: CAL-62 (Thyroid Gland Carcinoma)
Summary of the method: as §1

A2058 (Melanoma) = tested on: A2058 (Melanoma)
Summary of the method: as §1

[15] = tested on: VAL (B-Cell Non-Hodgkin's Lymphoma)
Summary of the method: as §1

[16] = tested on: REH (B-Lymphoblastic Leukemia)
Summary of the method: as §1

SMILES	Bliss excess [1]	Bliss excess (SF268 (Low Grade Glioma))	Bliss excess [2]	Bliss excess [3]	Bliss excess [4]	Bliss excess [5]	Bliss excess [6]	Bliss excess [7]	Bliss excess (WM793B (Melanoma))	Bliss excess [8]	Bliss excess (WM278 (Melanoma))	Bliss excess [9]	Bliss excess [10]	Bliss excess [11]	Bliss excess [12]	Bliss excess [13]	Bliss excess [14]	Bliss excess (A2058 (Melanoma))	Bliss excess [15]	Bliss excess [16]
Cc1c2c(nn1C)CSCc1cc(n(C)n1)CSc1cc(c3ccccc3c1)OCCCc1c(C(=O)O)n(C)c3c-2c(Cl)ccc13 [AZD5991] + Cn1cnc2c(F)c(Nc3ccc(Br)cc3Cl)c(C(=O)NOCCO)cc21 [Selumetinib] (first compound max 1 µM, 7x7, partner max 3 µM)	-0.0105	-0.0199	0.0017	0.0118	0.0048	0	-0.021	0.0414	-0.0053	0.0053	0.0368	0.0334	-0.0063	0.0278	-0.0435	0.0011	-0.0174	0.213	-0.0227	-0.0302
CC(=O)Nc1cccc(-n2c(=O)n(C3CC3)c(=O)c3c(Nc4ccc(I)cc4F)n(C)c(=O)c(C)c32)c1 [Trametinib] + Cc1nc(-c2cn3c(n2)-c2ccc(-c4cnn(C(C)(C)C(N)=O)c4)cc2OCC3)n(C(C)C)n1 [Taselisib] (first compound max 1 µM, 7x7, partner max 10 µM)	0.0676	0.0152	-0.0186	0.184	0.0906	0.0881	0.0528	0.164	0.0203	0.0519	0.13	0.0654	0.0821	0.0968	0.129	0.0665	0.15	0.104	0.101	0.0939
CN(C)CCCOc1ccc(-c2ccc3ncc4c(c3c2)n(C2CCOCC2)c(=O)n4C)cn1 [AZD0156] + C[C@@H]1COCCN1C2=NC(=NC(=C2)C3(CC3)[S@](=N)(=O)C)C4=C5C=CNC5=NC=C4 [AZD6738] (first compound max 1 µM, 7x7, partner max 10 µM)	0.0142	-0.0359	0.0291	0.0054	0.0544	-0.0315	0.0699	0.0318	0.0342	0.0089	-0.0332	0.0549	-0.0261	0.0459	0.0087	-0.0202	-0.0221	-0.0135	-0.0049	-0.0277
Cc1nc(Nc2ncc(C(=O)Nc3c(C)cccc3Cl)s2)cc(N2CCN(CCO)CC2)n1 [Dasatinib] + CC(=O)Nc1cccc(-n2c(=O)n(C3CC3)c(=O)c3c(Nc4ccc(I)cc4F)n(C)c(=O)c(C)c32)c1 [Trametinib] (first compound max 2 µM, 7x7, partner max 1 µM)	0.032	-0.073	-0.0254	-0.0706	-0.179	0.008	0.0745	-0.0439	-0.0015	-0.0527	0.162	-0.045	0.0113	-0.0125	-0.0436	0.0121	0.163	0.005	-0.0543	-0.0421
Cn1cnc2c(F)c(Nc3ccc(Br)cc3Cl)c(C(=O)NOCCO)cc21 [Selumetinib] + CCN(CCO)CCCOc1ccc2c(Nc3cc(CC(=O)Nc4cccc(F)c4)[nH]n3)ncnc2c1 [AZD2811] (first compound max 10 µM, 7x7, partner max 1 µM)	-0.0065	-0.027	-0.0153	-0.0355	-0.0041	0.0086	-0.0915	0.0253	-0.0465	-0.0359	-0.0003	-0.0264	-0.0937	-0.0047	-0.0471	-0.0501	0.0427	0.0945	-0.0614	-0.0464
Cc1c2c(nn1C)CSCc1cc(n(C)n1)CSc1cc(c3ccccc3c1)OCCCc1c(C(=O)O)n(C)c3c-2c(Cl)ccc13 [AZD5991] + C[C@@H](Nc1cc(F)cc(F)c1)c1cc(C(=O)N(C)C)cc2c(=O)cc(N3CCOCC3)oc12 [AZD8186] (first compound max 1 µM, 7x7, partner max 3 µM)	-0.0318	-0.0095	-0.0645	-0.0069	-0.0353	0.0233	0.0239	-0.0127	0.0512	0.0208	0.0096	-0.0603	0.0056	-0.0459	-0.013	-0.0407		0.119	0.0426	-0.024
C[C@@H](c1ccc2nccn2c1)n1nnc2ncc(-c3cnn(C)c3)nc21 [Savolitinib] + CC1(C)CCC(CN2CCN(c3ccc(C(=O)NS(=O)(=O)c4ccc(NCC5CCOCC5)c([N+](=O)[O-])c4)c(Oc4cnc5[nH]ccc5c4)c3)CC2)=C(c2ccc(Cl)cc2)C1 [Venetoclax] (first compound max 1 µM, 7x7, partner max 1 µM)	-0.0804	-0.095	-0.0572	0.0096	-0.0562	0.0176	-0.0048	-0.0339	-0.0603	-0.0725	-0.0614	-0.0578	-0.0137	-0.0357	-0.105	-0.0411	-0.0246	-0.0611	-0.0305	-0.0192
COc1nnc2ccc(N3CCC(c4ccc(OCCN5CCN(C)C(=O)[C@H]5C)cc4)CC3)nn12 [AZD5153] + Cc1c2c(nn1C)CSCc1cc(n(C)n1)CSc1cc(c3ccccc3c1)OCCCc1c(C(=O)O)n(C)c3c-2c(Cl)ccc13 [AZD5991] (first compound max 1 µM, 7x7, partner max 1 µM)	0.0048	0.0097	-0.0569	0.0135	-0.0393	0.0283	-0.03	0.0019	-0.0303	0.0015	-0.0929	0.0791	0.0184	0.116	0.0322	-0.0263	-0.057	0.067	-0.112	-0.0621
NC1(C(=O)N[C@@H](CCO)c2ccc(Cl)cc2)CCN(c2ncnc3[nH]ccc23)CC1 [Capivasertib] + COc1nnc2ccc(N3CCC(c4ccc(OCCN5CCN(C)C(=O)[C@H]5C)cc4)CC3)nn12 [AZD5153] (first compound max 10 µM, 7x7, partner max 1 µM)	0.101	0.0881	0.0292	0.0142	0.0617	-0.0938	-0.027	0.0995	-0.0115	0.0131	0.0078	0.0623	0.0566	-0.045	-0.0718	-0.0448	-0.0078	0.0597	-0.0867	0.0272
CC1(C)CCC(CN2CCN(c3ccc(C(=O)NS(=O)(=O)c4ccc(NCC5CCOCC5)c([N+](=O)[O-])c4)c(Oc4cnc5[nH]ccc5c4)c3)CC2)=C(c2ccc(Cl)cc2)C1 [Venetoclax] + COc1cc(Nc2ncc3c(n2)-c2ccc(Cl)cc2C(c2c(F)cccc2OC)=NC3)ccc1C(=O)O [Alisertib] (first compound max 1 µM, 7x7, partner max 10 µM)	-0.0182	0.0151	0.0453	-0.103	-0.0289	-0.05	0.0409	-0.0953	-0.0223	-0.0096	0.0416	-0.0303	-0.035	-0.0545	0.0171	-0.0219	-0.0092	-0.0871	0.0174	0.22
COc1nnc2ccc(N3CCC(c4ccc(OCCN5CCN(C)C(=O)[C@H]5C)cc4)CC3)nn12 [AZD5153] + C=CCn1c(=O)c2cnc(Nc3ccc(N4CCN(C)CC4)cc3)nc2n1-c1cccc(C(C)(C)O)n1 [AZD1775] (first compound max 1 µM, partner max 1 µM)	-0.0176	0.0037	-0.0279	-0.0516	-0.1	-0.0138	-0.0044	-0.0212	-0.0265	-0.052	-0.0364	0.0309	0.0029	0.0096	-0.0426	-0.0385	-0.0228	-0.0175	-0.126	-0.0291
C=CCn1c(=O)c2cnc(Nc3ccc(N4CCN(C)CC4)cc3)nc2n1-c1cccc(C(C)(C)O)n1 [AZD1775] + C1CN(CCC1(C(=O)N[C@@H](CCO)C2=CC=C(C=C2)Cl)N)C3=NC=NC4=C3C=CN4 [Capivasertib] (first compound max 3 µM, partner max 3 µM)	-0.0265	-0.009	-0.0274	0.0067	-0.0483	-0.097	0.0484	-0.0046	-0.0157	-0.0587	-0.0468	-0.0207	-0.0913	-0.0132		-0.0238	0.0089	0.0217	-0.0252	0.0008
Cc1c2c(nn1C)CSCc1cc(n(C)n1)CSc1cc(c3ccccc3c1)OCCCc1c(C(=O)O)n(C)c3c-2c(Cl)ccc13 [AZD5991] + CN(C)CCCOc1ccc(-c2ccc3ncc4c(c3c2)n(C2CCOCC2)c(=O)n4C)cn1 [AZD0156] (first compound max 1 µM, 7x7, partner max 1 µM)	-0.036	0.0324	-0.0201	-0.0201	0.0372	0.0295	-0.0258	0.0472	-0.0312	-0.0569	-0.0196	-0.0643	0.0039	0.0257	-0.0172		-0.0061	-0.0048	-0.0034	-0.0321
Cc1c2c(nn1C)CSCc1cc(n(C)n1)CSc1cc(c3ccccc3c1)OCCCc1c(C(=O)O)n(C)c3c-2c(Cl)ccc13 [AZD5991] + C1CN(CCC1(C(=O)N[C@@H](CCO)C2=CC=C(C=C2)Cl)N)C3=NC=NC4=C3C=CN4 [Capivasertib] (first compound max 1 µM, 7x7, partner max 3 µM)	0.0424	-0.008	-0.0493	0.0308	0.0125	0.0039	-0.0047	0.042	0.0045	0.0013	-0.0498	-0.0492	-0.0103	-0.0409	0.0306	-0.0533		0.0972	-0.0223	-0.0557
